Experiments:
[1] = target: 5-hydroxytryptamine receptor 1D (Homo sapiens) (UniProt P28221); assay: Inhibition of human 5-HT1D expressed in HEK293T cells at 10 uM relative to control; type: cell-based
[2] = target: Sigma intracellular receptor 2 (Homo sapiens) (UniProt Q5BJF2); assay: Inhibition of human Sigma intracellular receptor 2 at 10 uM relative to control; type: cell-based
[3] = target: Kappa-type opioid receptor (Homo sapiens) (UniProt P41145); assay: Inhibition of human kappa opioid receptor expressed in stable HEK cells at 10 uM relative to control; type: cell-based
Chain of Kappa-type opioid receptor (Homo sapiens) (P41145 whole entry): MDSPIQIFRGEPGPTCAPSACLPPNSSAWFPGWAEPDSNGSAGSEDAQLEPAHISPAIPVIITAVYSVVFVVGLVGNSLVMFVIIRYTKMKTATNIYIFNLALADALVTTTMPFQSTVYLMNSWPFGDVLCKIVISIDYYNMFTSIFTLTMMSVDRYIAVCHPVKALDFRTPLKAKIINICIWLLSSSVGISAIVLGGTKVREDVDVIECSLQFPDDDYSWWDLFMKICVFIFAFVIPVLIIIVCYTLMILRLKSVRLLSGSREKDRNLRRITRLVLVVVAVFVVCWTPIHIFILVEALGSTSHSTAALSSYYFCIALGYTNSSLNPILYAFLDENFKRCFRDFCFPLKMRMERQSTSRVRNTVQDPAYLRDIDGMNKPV

Rattus norvegicus [4] = species: Rattus norvegicus; assay: Inhibition of Rat GABAA at 10 uM in the presence of 3H and BZP relative to control
[5] = target: Histamine H2 receptor (Homo sapiens) (UniProt P25021); assay: Inhibition of human Histamine H2 receptor expressed in stable HEK cells at 10 uM relative to control; type: cell-based
[6] = target: Muscarinic acetylcholine receptor M5 (Homo sapiens) (UniProt P08912); assay: Inhibition of human Muscarinic acetylcholine receptor M5 expressed in stable Cricetulus griseus CHO cells at 10 uM relative to control; type: cell-based
Chain of Muscarinic acetylcholine receptor M5 (Homo sapiens) (P08912 whole entry): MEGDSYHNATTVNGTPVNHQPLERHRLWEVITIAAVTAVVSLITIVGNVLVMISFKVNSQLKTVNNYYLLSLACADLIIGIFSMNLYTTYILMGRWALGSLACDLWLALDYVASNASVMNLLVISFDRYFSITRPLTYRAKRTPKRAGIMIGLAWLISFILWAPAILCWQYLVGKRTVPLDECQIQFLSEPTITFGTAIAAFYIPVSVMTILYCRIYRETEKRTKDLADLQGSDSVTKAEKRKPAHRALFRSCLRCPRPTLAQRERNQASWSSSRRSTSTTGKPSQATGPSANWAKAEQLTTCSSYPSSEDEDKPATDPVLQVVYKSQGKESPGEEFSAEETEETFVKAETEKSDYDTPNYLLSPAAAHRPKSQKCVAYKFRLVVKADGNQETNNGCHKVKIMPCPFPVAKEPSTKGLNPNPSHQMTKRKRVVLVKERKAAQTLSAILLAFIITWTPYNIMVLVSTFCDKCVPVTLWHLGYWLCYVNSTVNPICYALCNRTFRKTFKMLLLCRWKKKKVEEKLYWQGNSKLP

[7] = target: Delta-type opioid receptor (Homo sapiens) (UniProt P41143); assay: Inhibition of human Delta-type opioid receptor expressed in stable HEK cells at 10 uM relative to control; type: cell-based
Chain of Delta-type opioid receptor (Homo sapiens) (P41143 whole entry): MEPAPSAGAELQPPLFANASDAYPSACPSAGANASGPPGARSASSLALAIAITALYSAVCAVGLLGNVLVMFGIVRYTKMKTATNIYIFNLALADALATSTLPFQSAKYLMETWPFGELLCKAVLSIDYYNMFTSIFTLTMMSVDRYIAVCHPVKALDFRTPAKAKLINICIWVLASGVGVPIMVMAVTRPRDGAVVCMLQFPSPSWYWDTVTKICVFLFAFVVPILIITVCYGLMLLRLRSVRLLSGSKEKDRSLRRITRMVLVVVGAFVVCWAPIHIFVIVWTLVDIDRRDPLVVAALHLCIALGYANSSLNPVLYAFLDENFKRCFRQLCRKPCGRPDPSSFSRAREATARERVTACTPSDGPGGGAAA

Rattus norvegicus [8] = species: Rattus norvegicus; assay: Inhibition of Rat alpha 1-Adrenoceptor at 10 uM relative to control
[9] = target: 5-hydroxytryptamine receptor 6 (Homo sapiens) (UniProt P50406); assay: Inhibition of human 5-HT6 at 10 uM relative to control
[10] = target: D(1A) dopamine receptor (Homo sapiens) (UniProt P21728); assay: Inhibition of human D(1A) dopamine receptor at 10 uM relative to control
[11] = target: Melanocortin receptor 4 (Homo sapiens) (UniProt P32245); assay: Inhibition of human Melanocortin receptor 4 at 10 uM relative to control
[12] = target: T1, Muscarinic acetylcholine receptor M2 (Homo sapiens) (UniProt P08172); assay: Inhibition of human Muscarinic acetylcholine receptor M2 at 10 uM relative to control
T1 sequence (whole entry): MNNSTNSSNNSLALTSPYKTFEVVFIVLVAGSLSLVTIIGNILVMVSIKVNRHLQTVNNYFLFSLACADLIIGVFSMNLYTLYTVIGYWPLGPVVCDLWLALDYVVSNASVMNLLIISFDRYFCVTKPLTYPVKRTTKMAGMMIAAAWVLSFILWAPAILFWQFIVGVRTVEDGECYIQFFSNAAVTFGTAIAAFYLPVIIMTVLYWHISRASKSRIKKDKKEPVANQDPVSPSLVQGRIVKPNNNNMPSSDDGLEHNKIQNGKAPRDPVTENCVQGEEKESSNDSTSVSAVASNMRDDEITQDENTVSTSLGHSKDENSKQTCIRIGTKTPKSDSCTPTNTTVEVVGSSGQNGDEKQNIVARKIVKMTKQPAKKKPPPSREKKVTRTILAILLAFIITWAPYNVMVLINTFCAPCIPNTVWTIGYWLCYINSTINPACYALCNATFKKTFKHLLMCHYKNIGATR

[13] = target: Histamine H1 receptor (Homo sapiens) (UniProt P35367); assay: Inhibition of human HH1R at 10 uM relative to control
[14] = target: Alpha-2A adrenergic receptor (Homo sapiens) (UniProt P08913); assay: Inhibition of human Alpha-2A adrenergic receptor in stable Canis lupus familiaris MDCK cells at 10 uM relative to control; type: cell-based
[15] = target: Vasoactive intestinal polypeptide receptor 1 (Homo sapiens) (UniProt P32241); assay: Inhibition of human VPAC1 at 10 uM relative to control
[16] = target: Alpha-2B adrenergic receptor (Homo sapiens) (UniProt P18089); assay: Inhibition of human Alpha-2B adrenergic receptor expressed in HEK293T cells at 10 uM relative to control; type: cell-based
[17] = target: Delta-type opioid receptor (Homo sapiens) (UniProt P41143); assay: Inhibition of human Delta-type opioid receptor at 10 uM relative to control
[18] = target: C-X-C chemokine receptor type 2 (Homo sapiens) (UniProt P25025); assay: Inhibition of human CXCR2 at 10 uM relative to control
Chain of C-X-C chemokine receptor type 2 (Homo sapiens) (P25025 whole entry): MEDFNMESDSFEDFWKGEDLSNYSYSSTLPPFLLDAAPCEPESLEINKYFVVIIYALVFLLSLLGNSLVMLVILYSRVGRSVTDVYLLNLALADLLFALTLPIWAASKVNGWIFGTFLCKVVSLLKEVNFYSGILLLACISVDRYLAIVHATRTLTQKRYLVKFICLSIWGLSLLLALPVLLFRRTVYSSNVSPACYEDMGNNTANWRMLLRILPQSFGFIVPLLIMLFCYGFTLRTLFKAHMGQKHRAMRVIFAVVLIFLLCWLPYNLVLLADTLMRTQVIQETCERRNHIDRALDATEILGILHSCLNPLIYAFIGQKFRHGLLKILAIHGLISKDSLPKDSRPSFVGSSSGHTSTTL

Rattus norvegicus [19] = species: Rattus norvegicus; assay: Inhibition of Rat GABAA at 10 uM in the presence of PBR relative to control
[20] = target: Histamine H3 receptor (Homo sapiens) (UniProt Q9Y5N1); assay: Inhibition of human Histamine H3 receptor expressed in human Flp-In-293 cells at 10 uM relative to control; type: cell-based
[21] = target: Adenosine receptor A3 (Homo sapiens) (UniProt P0DMS8); assay: Inhibition of human Adenosine receptor A3 at 10 uM relative to control
[22] = target: 5-hydroxytryptamine receptor 1B (Homo sapiens) (UniProt P28222); assay: Inhibition of human 5-HT1B expressed in stable HEK cells at 10 uM relative to control; type: cell-based
Chain of 5-hydroxytryptamine receptor 1B (Homo sapiens) (P28222 whole entry): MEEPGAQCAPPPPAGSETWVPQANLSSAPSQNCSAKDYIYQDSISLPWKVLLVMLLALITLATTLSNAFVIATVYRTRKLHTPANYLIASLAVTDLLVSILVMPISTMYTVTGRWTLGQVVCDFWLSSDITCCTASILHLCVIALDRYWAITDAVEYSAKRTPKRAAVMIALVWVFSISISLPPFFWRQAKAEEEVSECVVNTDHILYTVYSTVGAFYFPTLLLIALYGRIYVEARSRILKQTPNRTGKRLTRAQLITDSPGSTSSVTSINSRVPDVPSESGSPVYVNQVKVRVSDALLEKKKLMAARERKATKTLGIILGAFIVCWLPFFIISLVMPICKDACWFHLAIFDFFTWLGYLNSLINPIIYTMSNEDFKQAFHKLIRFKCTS

[23] = target: 5-hydroxytryptamine receptor 5A (Homo sapiens) (UniProt P47898); assay: Inhibition of human 5-HT5a at 10 uM relative to control
[24] = target: D(4) dopamine receptor (Homo sapiens) (UniProt P21917); assay: Inhibition of human D(4) dopamine receptor in stable HEK cells at 10 uM relative to control; type: cell-based
Chain of D(4) dopamine receptor (Homo sapiens) (P21917 whole entry): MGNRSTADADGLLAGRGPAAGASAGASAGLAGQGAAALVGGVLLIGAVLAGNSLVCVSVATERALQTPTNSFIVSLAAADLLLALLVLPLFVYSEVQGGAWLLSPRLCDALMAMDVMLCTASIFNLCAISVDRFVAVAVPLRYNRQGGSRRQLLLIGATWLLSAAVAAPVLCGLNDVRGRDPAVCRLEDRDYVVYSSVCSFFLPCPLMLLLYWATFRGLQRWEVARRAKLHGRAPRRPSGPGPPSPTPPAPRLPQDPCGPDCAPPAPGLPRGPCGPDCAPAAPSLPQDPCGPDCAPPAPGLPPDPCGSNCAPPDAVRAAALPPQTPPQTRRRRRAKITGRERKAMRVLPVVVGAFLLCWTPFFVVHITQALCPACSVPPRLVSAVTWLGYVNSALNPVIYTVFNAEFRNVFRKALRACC

[25] = target: Sodium-dependent dopamine transporter (Homo sapiens) (UniProt Q01959); assay: Inhibition of human Sodium-dependent dopamine transporter at 10 uM relative to control
Chain of Sodium-dependent dopamine transporter (Homo sapiens) (Q01959 whole entry): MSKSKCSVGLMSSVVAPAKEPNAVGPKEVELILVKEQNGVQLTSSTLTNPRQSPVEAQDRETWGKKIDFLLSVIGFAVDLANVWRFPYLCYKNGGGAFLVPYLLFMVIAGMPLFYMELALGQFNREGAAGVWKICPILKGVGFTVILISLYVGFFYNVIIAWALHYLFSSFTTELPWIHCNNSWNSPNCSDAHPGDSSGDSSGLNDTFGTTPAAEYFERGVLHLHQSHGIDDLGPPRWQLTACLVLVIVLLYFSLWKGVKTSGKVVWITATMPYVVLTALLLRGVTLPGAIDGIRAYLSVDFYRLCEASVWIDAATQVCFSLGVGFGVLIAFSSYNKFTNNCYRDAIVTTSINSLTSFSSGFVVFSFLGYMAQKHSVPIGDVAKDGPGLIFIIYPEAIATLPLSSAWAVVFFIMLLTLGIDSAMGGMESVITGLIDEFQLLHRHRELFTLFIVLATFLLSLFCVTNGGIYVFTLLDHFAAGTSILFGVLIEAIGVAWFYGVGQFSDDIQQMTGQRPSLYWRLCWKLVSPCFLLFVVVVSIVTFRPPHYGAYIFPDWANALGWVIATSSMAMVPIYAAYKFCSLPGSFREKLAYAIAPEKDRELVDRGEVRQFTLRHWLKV

[26] = target: Histamine H4 receptor (Homo sapiens) (UniProt Q9H3N8); assay: Inhibition of human Histamine H4 receptor expressed in HEK293T cells at 10 uM relative to control; type: cell-based
[27] = target: Prostaglandin E2 receptor EP4 subtype (Homo sapiens) (UniProt P35408); assay: Inhibition of human Prostanoid EP4 receptor at 10 uM relative to control
[28] = target: Galanin receptor type 2 (Homo sapiens) (UniProt O43603); assay: Inhibition of human GAL2 at 10 uM relative to control
Chain of Galanin receptor type 2 (Homo sapiens) (O43603 whole entry): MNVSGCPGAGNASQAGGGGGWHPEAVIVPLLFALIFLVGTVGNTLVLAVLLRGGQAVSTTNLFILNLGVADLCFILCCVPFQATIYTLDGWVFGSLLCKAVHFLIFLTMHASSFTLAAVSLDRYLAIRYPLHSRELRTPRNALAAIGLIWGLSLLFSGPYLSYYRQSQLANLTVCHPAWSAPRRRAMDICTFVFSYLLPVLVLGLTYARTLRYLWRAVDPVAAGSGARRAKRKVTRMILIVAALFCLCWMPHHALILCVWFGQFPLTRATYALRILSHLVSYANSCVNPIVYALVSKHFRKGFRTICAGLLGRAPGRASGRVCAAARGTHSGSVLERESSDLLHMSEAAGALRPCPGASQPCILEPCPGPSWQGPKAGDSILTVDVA

[29] = target: Kappa-type opioid receptor (Homo sapiens) (UniProt P41145); assay: Inhibition of human Kappa-type opioid receptor at 10 uM relative to control
[30] = target: Alpha-1B adrenergic receptor (Homo sapiens) (UniProt P35368); assay: Inhibition of human Alpha-1B adrenergic receptor expressed in HEK293T cells at 10 uM relative to control; type: cell-based
Rattus norvegicus [31] = species: Rattus norvegicus; assay: Inhibition of Rat Somatostatin at 10 uM relative to control
[32] = target: 5-hydroxytryptamine receptor 2A (Homo sapiens) (UniProt P28223); assay: Inhibition of human 5-HT2A at 10 uM relative to control
[33] = target: C-C chemokine receptor type 1 (Homo sapiens) (UniProt P32246); assay: Inhibition of human C-C chemokine receptor type 1 at 10 uM relative to control
Chain of C-C chemokine receptor type 1 (Homo sapiens) (P32246 whole entry): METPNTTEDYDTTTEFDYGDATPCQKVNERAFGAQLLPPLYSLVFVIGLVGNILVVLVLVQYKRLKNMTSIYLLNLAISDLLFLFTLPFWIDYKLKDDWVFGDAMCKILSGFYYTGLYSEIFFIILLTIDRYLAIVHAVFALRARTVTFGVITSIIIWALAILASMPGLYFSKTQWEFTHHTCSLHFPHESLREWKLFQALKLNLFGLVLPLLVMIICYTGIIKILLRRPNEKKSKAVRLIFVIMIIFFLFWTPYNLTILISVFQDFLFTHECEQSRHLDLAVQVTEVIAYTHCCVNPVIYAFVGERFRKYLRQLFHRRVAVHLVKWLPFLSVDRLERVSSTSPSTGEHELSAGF

[34] = target: D(3) dopamine receptor (Homo sapiens) (UniProt P35462); assay: Inhibition of human D(3) dopamine receptor expressed in HEK293T cells at 10 uM relative to control; type: cell-based
[35] = target: Alpha-2C adrenergic receptor (Homo sapiens) (UniProt P18825); assay: Inhibition of human Alpha-2C adrenergic receptor in stable Canis lupus familiaris MDCK cells at 10 uM relative to control; type: cell-based
Chain of Alpha-2C adrenergic receptor (Homo sapiens) (P18825 whole entry): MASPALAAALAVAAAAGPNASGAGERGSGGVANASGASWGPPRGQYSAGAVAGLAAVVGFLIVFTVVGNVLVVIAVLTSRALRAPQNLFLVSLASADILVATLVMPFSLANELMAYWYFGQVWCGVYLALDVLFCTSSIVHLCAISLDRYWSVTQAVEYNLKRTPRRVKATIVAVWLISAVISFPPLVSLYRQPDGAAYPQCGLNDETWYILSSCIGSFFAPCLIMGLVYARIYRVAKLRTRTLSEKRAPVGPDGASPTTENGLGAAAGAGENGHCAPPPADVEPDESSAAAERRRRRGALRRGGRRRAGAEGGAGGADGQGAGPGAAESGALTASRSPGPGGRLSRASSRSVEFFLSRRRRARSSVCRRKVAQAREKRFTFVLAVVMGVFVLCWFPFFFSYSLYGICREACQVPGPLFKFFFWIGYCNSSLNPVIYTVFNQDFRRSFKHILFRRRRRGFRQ

Chain of 5-hydroxytryptamine receptor 1D (Homo sapiens) (P28221 whole entry): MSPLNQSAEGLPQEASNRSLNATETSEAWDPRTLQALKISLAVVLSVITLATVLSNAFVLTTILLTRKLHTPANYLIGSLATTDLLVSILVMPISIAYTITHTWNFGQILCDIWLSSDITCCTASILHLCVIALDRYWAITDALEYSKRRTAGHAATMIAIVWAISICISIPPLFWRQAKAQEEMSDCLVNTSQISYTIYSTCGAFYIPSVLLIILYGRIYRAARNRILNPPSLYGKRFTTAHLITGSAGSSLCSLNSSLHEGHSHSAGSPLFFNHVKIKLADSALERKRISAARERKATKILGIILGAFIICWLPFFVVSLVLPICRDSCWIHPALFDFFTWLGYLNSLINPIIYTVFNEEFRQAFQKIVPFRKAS
Chain of Sigma intracellular receptor 2 (Homo sapiens) (Q5BJF2 whole entry): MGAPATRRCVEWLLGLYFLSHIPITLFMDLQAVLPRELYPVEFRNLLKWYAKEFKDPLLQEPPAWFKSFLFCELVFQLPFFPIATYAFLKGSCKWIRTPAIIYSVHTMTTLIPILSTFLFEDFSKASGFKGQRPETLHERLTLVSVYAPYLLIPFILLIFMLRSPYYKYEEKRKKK

Row | inhibition [1] [%] | inhibition [2] [%] | inhibition [3] [%] | inhibition (Rattus norvegicus [4]) [%] | inhibition [5] [%] | inhibition [6] [%] | inhibition [7] [%] | inhibition (Rattus norvegicus [8]) [%] | inhibition [9] [%] | inhibition [10] [%] | inhibition [11] [%] | inhibition [12] [%] | inhibition [13] [%] | inhibition [14] [%] | inhibition [15] [%] | inhibition [16] [%] | inhibition [17] [%] | inhibition [18] [%] | inhibition (Rattus norvegicus [19]) [%] | inhibition [20] [%] | Structure (SMILES) | further results
1 | 1 | -1 | 54 | 29 | -7 | -4 | 8 | 12 | -4 | -3 | -1 | -2 | 3 | 5 | -4 | 7 | 6 | 8 | 65 | -4 | O=C(c1nnc(NC2CCCC2)c2cc(Cl)c(Cl)cc12)N1CCC(O)CC1 | inhibition [21]: 27%; inhibition [22]: 5%; inhibition [23]: 2%; inhibition [24]: -2%; inhibition [25]: -1%; inhibition [26]: -3%; inhibition [27]: -2%; inhibition [28]: -8%; inhibition [29]: 45%; inhibition [30]: -4%; inhibition (Rattus norvegicus [31]): 5%; inhibition [32]: -5%; inhibition [33]: -3%; inhibition [34]: 0%; inhibition [35]: 4%
2 | -8 | 1 | 26 | 5 | -1 | -1 | 11 | 5 | -1 | 15 | 14 | 23 | 1 | -6 | -5 | 14 | 51 | -1 | 1 | 6 | Clc1cc2c(NC3CCCC3)nnc(-c3ccncc3)c2cc1Cl | inhibition [21]: 74%; inhibition [22]: 4%; inhibition [23]: 9%; inhibition [24]: 1%; inhibition [25]: 14%; inhibition [26]: -6%; inhibition [27]: 7%; inhibition [28]: 3%; inhibition [29]: 62%; inhibition [30]: 1%; inhibition (Rattus norvegicus [31]): 2%; inhibition [32]: -1%; inhibition [33]: 16%; inhibition [34]: 1%; inhibition [35]: 0%

Source: ChEMBL document CHEMBL5649167, “The SUV4-20 inhibitor A-196 verifies a role for epigenetics in genomic integrity” (Nat Chem Biol, 2017)
